Experimental data from patent publication US7763751B2 (priority 2003, dated 2010).
Where two headings read alike, the source gives them in different places.

Experiments:
[1] = target: T1, α-synuclein (Homo sapiens, UniProt P37840); assay: Inhibition of NAC (α-synuclein) spontaneous aggregation (HPLC assay); format: biochemical; details: for potency in inhibiting the aggregation of α-synuclein as compared to compound (3): comparison with known compound (3); for anti-aggregating properties against α-synuclein: in words
T1 construct: The synthetic peptide NAC (Bachem) was dissolved at 1 mg/ml; purchased Bachem; host or cells: chemical synthesis
Experimental: (§1) In our experimental conditions, the peptide monomer (anti-aggregation protocol) or already aggregated (disaggregation protocol) was incubated at 37° C., alone or in the presence of the test compound, for different time intervals, then centrifuged and both the supernatant and the pellet were analyzed by HPLC or Thioflavine T binding assay.
Inhibition of Non Aβ Component of Alzheimer's Disease Amyloid (NAC, α-synuclein) Spontaneous Aggregation
Preparation of the NAC peptide
The synthetic peptide NAC (Bachem) was dissolved at 1 mg/ml in H2O/CH3CN 1:1 plus 5% TFA. Aliquots of 40 μg were lyophilized under vacuum for 18 h and stored at −80° C.
NAC spontaneous aggregation
40 μg of lyophilized peptide sample was dissolved at 500 μM in 20 mM potassium phosphate buffer, pH 7.4, containing 150 mM NaCl. The sample was incubated for 24 h at 37° C. After centrifugation at 13000 xg for 5 min, the pellet was dissolved in formic acid and both pellet and supernatant were analyzed by HPLC. The extent of aggregation was determined as the percentage of peptide content in the pellet compared to the total amount used.

[2] = target: T2, β-Amyloid1-42 (Homo sapiens, UniProt P05067); assay: Inhibition of Aβ 1-42 spontaneous aggregation (HPLC assay); format: biochemical; details: for IC50: concentration able to inhibit the aggregation of the fibrils by 50%, peptide 20 μM, pH 7.4, 18 h at 37° C., read-out: β-Amyloid1-42 Anti-aggregation (HPLC assay) IC50; for potency in inhibiting the aggregation of Aβ1-42 as compared to compound (3): comparison with known compound (3); for anti-aggregating properties against Aβ1-42: in words
T2 construct: Synthetic Aβ 1-42 (U.S. Peptide, Rancho Cucamonga, USA); purchased U.S. Peptide, Rancho Cucamonga, USA; host or cells: chemical synthesis
Experimental: as §1
Inhibition of Aβ 1-42 Spontaneous Aggregation
Preparation of the Aβ 1-42 peptide
Synthetic Aβ 1-42 (U.S. Peptide, Rancho Cucamonga, USA) was dissolved to 220 μM in H2O/CH3CN 1:1. Aliquots of 10 μg were lyophilized under vacuum with an Eppendorf concentrator for 18 h and stored at −80° C.
Aβ 1-42 spontaneous aggregation
10 μg of lyophilized peptide sample was dissolved at 20 μM in 20 mM potassium phosphate buffer, pH 7.4, containing 150 mM NaCl. The sample was incubated for 18 h at 37° C. After centrifugation at 13000 xg for 5 min, the pellet was dissolved in formic acid and both the pellet and the supernatant were analysed by HPLC. The extent of aggregation was determined as the percentage of peptide content in the pellet compared with the total amount.

T2 sequence (P05067 672-713 limits assumed): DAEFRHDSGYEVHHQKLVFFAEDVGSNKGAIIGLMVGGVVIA

CCCN(CCC)[C@@H]1Cc2c(O)ccc(O)c2C[C@H]1C (relative stereo) [Compound 3, trans-N-(5,8-hydroxy-3-methyl-1,2,3,4-tetrahydro-naphtalene-2yl)-N,N-dipropyl-amine, reference compound]
IC50 ([1]; NAC peptide 500 μM, pH 7.4, 24 h at 37° C., read-out: α-synuclein Anti-aggregation (HPLC assay) IC50): 878 µM
IC50 [2]: 60 µM

CONC(C)Cc1ccc(O)c(O)c1 (centres unmarked) [Compound 1, N-(1-methyl-2-(3,4-dihydroxy-phenyl)-ethyl)-O-methyl-hydroxylamine]
IC50 [1]: 222 µM
potency in inhibiting the aggregation of α-synuclein as compared to compound (3) [1]: more potent
anti-aggregating properties against α-synuclein [1]: significant anti-aggregating properties
potency in inhibiting the aggregation of Aβ1-42 as compared to compound (3) [2]: more potent
IC50 [2]: 15 µM
anti-aggregating properties against Aβ1-42 [2]: significant anti-aggregating properties

CCCN(OCC)C1CCc2c(ccc(O)c2O)C1 (centres unmarked) [Compound 2, N-(5,6-dihydroxy-1,2,3,4-tetrahydro-naphthalene-2-yl)-N-propyl-O-ethyl-hydroxylamine]
IC50 [1]: 35 µM
potency in inhibiting the aggregation of α-synuclein as compared to compound (3) [1]: significantly more potent
anti-aggregating properties against α-synuclein [1]: significant anti-aggregating properties
potency in inhibiting the aggregation of Aβ1-42 as compared to compound (3) [2]: significantly more potent
IC50 [2]: 6 µM
anti-aggregating properties against Aβ1-42 [2]: significant anti-aggregating properties
